# Test results as given in paper PMC6792352, “Limited Chemical Structural Diversity Found to Modulate Thyroid Hormone Receptor in the Tox21 Chemical Library” (Environmental Health Perspectives, 2019).
# Counter-ions that a name gives are not always drawn.
# Experiment: in vitro
# Conditions: rat, gh3-tre-luc cells
SMILES,CC50 at 24 h (AC50 (uM) modified / 1000) [µM],further results
CN1CC[C@]23c4c5ccc(O)c4O[C@H]2[C@@H](O)CC[C@H]3[C@H]1C5 [Dihydromorphine],–,"CC50 at 24 h (AC50 (uM) modified / 1000, Tox21_110001=Tox21_112886, viability, 1 nM T3 present, 24 h): > 90 µM"
CN[C@@H]1[C@H](O[C@H]2[C@H](O[C@H]3[C@H](O)[C@@H](O)[C@H](NC(=N)N)[C@@H](O)[C@@H]3NC(=N)N)O[C@@H](C)[C@]2(O)CO)O[C@@H](CO)[C@H](O)[C@H]1O [Dihydrostreptomycin sulfate],> 50,–
CC(C)[C@@H](C)/C=C/[C@@H](C)[C@H]1CC[C@H]2/C(=C/C=C3\C[C@@H](O)CC[C@@H]3C)CCC[C@]12C [Dihydrotachysterol],> 50,–
CC(C)COC(=O)CCCCC(=O)OCC(C)C [Diisobutyl adipate],> 90,–
CC(C)CC(=O)CC(C)C [Diisobutyl ketone],> 90,–
CC(C)COC(=O)c1ccccc1C(=O)OCC(C)C [Diisobutyl phthalate],> 90,–
CC(C)CNCC(C)C [Diisobutylamine],> 90,–
CC(C)CCCCCCCOC(=O)CCCCC(=O)OCCCCCCCC(C)C [Diisodecyl hexanedioate],> 100,–
CC(C)CCCCCCCOC(=O)c1ccccc1C(=O)OCCCCCCCC(C)C [Diisodecyl phthalate],> 90,–
"CC(C)CCCCCCOC(=O)C1CCCCC1C(=O)OCCCCCCC(C)C (centres unmarked) [Diisononyl cyclohexane-1,2-dicarboxylate]",> 90,–
CC(C)CCCCCCOC(=O)c1ccccc1C(=O)OCCCCCCC(C)C [Diisononyl phthalate],> 90,–
CCCCCCC(C)OC(=O)CCCCC(=O)OC(C)CCCCCC (centres unmarked) [Diisooctyl adipate],> 90,–
CC(C)CCCCCOC(=O)c1ccccc1C(=O)OCCCCCC(C)C [Diisooctyl phthalate],> 90,–
CC(O)CNCC(C)O (centres unmarked) [Diisopropanolamine],> 90,–
CC(C)OC(=O)CCCCC(=O)OC(C)C [Diisopropyl adipate],> 90,–
CC(C)OC(=O)c1ccccc1C(=O)OC(C)C [Diisopropyl phthalate],> 90,–
CC(C)NC(C)C [Diisopropylamine],–,"CC50 at 24 h (AC50 (uM) modified / 1000, Tox21_110001=Tox21_111075, viability, 1 nM T3 present, 24 h): > 50 µM; CC50 at 24 h (AC50 (uM) modified / 1000, Tox21_110001=Tox21_200216, viability, 1 nM T3 present, 24 h): > 90 µM"
CC(C)c1ccccc1C(C)C [Diisopropylbenzene],88.9,–
CC(C)N=C=NC(C)C [Diisopropylcarbodiimide],> 90,–

SMILES,CC50 at 24 h (AC50 (uM) modified / 1000) [µM],further results
CC1(C)OC[C@@H]2O[C@@]3(C(=O)O)OC(C)(C)O[C@H]3[C@@H]2O1 [Dikegulac],> 90,–
COc1cc(C(=O)OCCCN2CCCN(CCCOC(=O)c3cc(OC)c(OC)c(OC)c3)CC2)cc(OC)c1OC [Dilazep],7.82,–
CN(C(=O)C(Cl)Cl)c1ccc(OC(=O)c2ccco2)cc1 [Diloxanide furoate],> 50,–
COc1ccc2c(=O)c(C)c(-c3ccccc3)oc2c1CN(C)C [Dimefline hydrochloride],> 50,–
Cc1ccc2c(c1)[C@]13CCCC[C@@H]1[C@H](C2)N(C)CC3 [Dimemorfan phosphate],–,"CC50 at 24 h (AC50 (uM) modified / 1000, Tox21_110001=Tox21_113138, viability, 1 nM T3 present, 24 h): > 50 µM"
CC(O)CN(C)C (centres unmarked) [Dimepranol],> 50,–
OCC(S)CS (centres unmarked) [Dimercaprol],12.5,–
CN(C)CCCN1c2ccccc2C(C)(C)c2ccccc21 [Dimetacrine],14.8,–
C[C@@H](Cc1ccccc1)N(C)C [Dimetamfetamine],–,"CC50 at 24 h (AC50 (uM) modified / 1000, Tox21_110001=Tox21_111807, viability, 1 nM T3 present, 24 h): > 50 µM"
CC1(C)OC(=O)NC1=O [Dimethadione],> 90,–
CCNc1nc(NC(C)C(C)C)nc(SC)n1 (centres unmarked) [Dimethametryn],> 90,–
COCC(C)N(C(=O)CCl)c1c(C)csc1C (centres unmarked) [Dimethenamid],> 90,–
CC1=C(C)S(=O)(=O)CCS1(=O)=O [Dimethipin],> 90,–
CCCCc1cc2ccccc2c(OCCN(C)C)n1 [Dimethisoquin hydrochloride],7.4,–
CNC(=O)CSP(=S)(OC)OC [Dimethoate],–,"CC50 at 24 h (AC50 (uM) modified / 1000, Tox21_110001=Tox21_202246, viability, 1 nM T3 present, 24 h): > 90 µM"
COc1ccc(C(=CC(=O)N2CCOCC2)c2ccc(Cl)cc2)cc1OC [Dimethomorph],> 90,–
CC(=O)OC1CC(C)OC(C)O1 (centres unmarked) [Dimethoxane],> 90,–
CO[Si](C)(OC)c1ccccc1 [Dimethoxy(methyl)phenylsilane],> 90,–
